Test results from patent US20230212180A1, “SUBSTITUTED PYRAZINE COMPOUND, PHARMACEUTICAL COMPOSITION COMPRISING SAME, AND USE THEREOF” (Sichuan Kelun-Biotech Biopharmaceutical Co., Ltd., priority 2020, published 2023).

What was measured:
[1] = Pharmacokinetic (PK) studies in SD rat; assay type: in vivo; conditions: rat, male SD rats, plasma
Protocol: Test Example 6: Pharmacokinetic (PK) Studies in SD Rat
The compound of Example 12 and Control Compound 2 were administered to male SD rats by intravenous injection (IV) and gavage (PO) respectively to estimate the pharmacokinetic properties. Dosing amounts for IV and PO routes were 1 mg/kg and 5 mg/kg, respectively. The solvent for IV route was 5% DMSO+5% Solutol (polyoxyl 15-hydroxystearate)+90% Saline (physiological saline), and the solvent for PO route was 0.5% MC (sodium methylcellulose). Blood was collected at various time points after IV and PO administration. The blood was anticoagulated using EDTA.K2, and centrifuged to obtain plasma samples. The plasma samples were preserved at −80° C.
The plasma samples were subjected to protein precipitation and then to the LC-MS/MS analysis. WinNonlin 6.3 software was used to calculate the pharmacokinetic parameters by non-compartmental model, and the results were listed in Table 6 below.

[2] = Pharmacokinetic (PK) studies in Balb/c mouse; assay type: in vivo; conditions: female, Balb/c, mouse, in vivo
Protocol: Test Example 7: Pharmacokinetic (PK) Studies in Balb/c Mouse
The compound of Example 12, Control Compound 1, Control Compound 2, and TNO-155 were administered to female Balb/c mice by intravenous injection (IV) and gavage (PO) respectively to estimate the pharmacokinetic properties. Dosing amounts for IV and PO routes were 1 mg/kg and 10 mg/kg, respectively. The solvent for IV route was 5% DMSO+5% Solutol+90% Saline, and the solvent for PO route was 0.5% MC (sodium methylcellulose). Blood was collected at various time points after IV and PO administration. The blood from the test groups of the compound of Example 12, Control Compound 1, and Control Compound 2 was anticoagulated using EDTA.K2 and preserved at −80° C. The blood from the test groups of TNO-155 was anticoagulated using EDTA.K2 and centrifuged to obtain plasma samples, and the plasma samples were preserved at −80° C.
The blood or plasma samples were subjected to protein precipitation and then to the LC-MS/MS analysis. WinNonlin 6.3 software was used to calculate the pharmacokinetic parameters by non-compartmental model, and the results were listed in Table 7 below.

[3] = Pharmacokinetic (PK) studies in beagle dog; assay type: in vivo; conditions: dog, male beagle dogs, plasma
Protocol: Test Example 8: Pharmacokinetic (PK) Studies in Beagle Dog
The compound of Example 12, Control Compound 1, Control Compound 2, and TNO-155 were administered to male beagle dogs by intravenous injection (IV) and gavage (PO) respectively to estimate the pharmacokinetic properties. Dosing amounts for IV and PO routes were 0.5 mg/kg and 2.5 mg/kg. The solvent for IV route was 5% DMSO+5% Solutol+90% Saline, and the solvent for PO route was 0.5% MC (sodium methylcellulose). Blood was collected at various time points after IV and PO administration. The blood was anticoagulated using EDTA.K2, and centrifuged to obtain plasma samples. The plasma samples were preserved at −80° C.
The plasma samples were subjected to protein precipitation and then to the LC-MS/MS analysis. WinNonlin 6.3 software was used to calculate the pharmacokinetic parameters by non-compartmental model, and the results were listed in Table 8 below.

CYP1A2 = target: T1, CYP1A2 (Homo sapiens, UniProt P05177); experiment: Biochemical assay for CYP enzyme inhibition, P450-Glo CYP1A2 Screening System; assay type: in vitro ADME; conditions: estimated from percentage inhibition; read-out: IC50 (μM) CYP1A2
T1 construct: purchased Promega
T1 sequence (P05177 1-516): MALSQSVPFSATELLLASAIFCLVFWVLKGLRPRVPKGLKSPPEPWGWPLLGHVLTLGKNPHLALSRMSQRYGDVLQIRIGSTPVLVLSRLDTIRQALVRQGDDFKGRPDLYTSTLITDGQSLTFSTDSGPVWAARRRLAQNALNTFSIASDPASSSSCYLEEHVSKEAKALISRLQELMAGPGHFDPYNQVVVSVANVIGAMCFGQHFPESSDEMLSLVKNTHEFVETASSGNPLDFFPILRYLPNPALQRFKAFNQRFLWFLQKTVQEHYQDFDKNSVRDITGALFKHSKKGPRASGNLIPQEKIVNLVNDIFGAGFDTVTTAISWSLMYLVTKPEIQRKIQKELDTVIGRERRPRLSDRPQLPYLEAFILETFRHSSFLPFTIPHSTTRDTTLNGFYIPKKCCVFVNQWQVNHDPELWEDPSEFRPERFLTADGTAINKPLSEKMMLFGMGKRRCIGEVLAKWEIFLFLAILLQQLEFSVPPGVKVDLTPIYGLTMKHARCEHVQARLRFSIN
Protocol: (§1) Test Example 5: Biochemical Assay for CYP Enzyme (Cytochrome P450) Inhibition
P450-Glo™ CYP1A2 Screening System, (Promega);
(§2) BMG PHERAstar FS Luminescent.
(§3) The experiments were carried out separately according to the instructions of the kits. The steps were as follows:
3.1. Inhibition Against CYP1A2:
(§4) Test group: The test compounds at different concentrations were added into a microplate, and Luciferin-ME (100 μM), K3PO4 (100 mM), and CYP1A2 (0.01 μmol/μL) were added into each well, and pre-incubated at room temperature for 10 min. Thereafter, an NADPH regeneration system was added. The mixture was reacted at room temperature for 30 min. Finally, an equal volume of detection buffer was added and incubated at room temperature for 20 min, followed by chemiluminescence detection.
(§5) Negative control group: The experimental method for the negative control group was the same as that for the test group, except that the test compound was not added.
Blank control group: The experimental method for the blank control group was the same as that for the test group, except that the test compound was not added and that CYP1A2 was replaced with CYP1A2 Membrance (0.01 μmol/μL).
(§6) Percentage inhibition=(1−(the chemiluminescent signal value of the test compound group at a certain test concentration−the chemiluminescent signal value of the blank control group)/(the chemiluminescent signal value of the negative control group−the chemiluminescent signal value of the blank control group))×100%.
(§7) When the percentage inhibition was between 30% and 80%, a single value or a value range of the half maximal inhibitory concentration (IC50) of the compound against the CYP enzyme was estimated based on the following equation: IC50=X×(1−percentage inhibition)/percentage inhibition, wherein X was the test concentration of the compound.

CYP2D6 = target: T2, CYP2D6 (Homo sapiens, UniProt P10635); experiment: Biochemical assay for CYP enzyme inhibition, P450-Glo CYP2D6 Screening System; assay type: in vitro ADME; conditions: estimated from percentage inhibition; read-out: IC50 (μM) CYP2D6
T2 construct: purchased Promega
T2 sequence (P10635 whole entry): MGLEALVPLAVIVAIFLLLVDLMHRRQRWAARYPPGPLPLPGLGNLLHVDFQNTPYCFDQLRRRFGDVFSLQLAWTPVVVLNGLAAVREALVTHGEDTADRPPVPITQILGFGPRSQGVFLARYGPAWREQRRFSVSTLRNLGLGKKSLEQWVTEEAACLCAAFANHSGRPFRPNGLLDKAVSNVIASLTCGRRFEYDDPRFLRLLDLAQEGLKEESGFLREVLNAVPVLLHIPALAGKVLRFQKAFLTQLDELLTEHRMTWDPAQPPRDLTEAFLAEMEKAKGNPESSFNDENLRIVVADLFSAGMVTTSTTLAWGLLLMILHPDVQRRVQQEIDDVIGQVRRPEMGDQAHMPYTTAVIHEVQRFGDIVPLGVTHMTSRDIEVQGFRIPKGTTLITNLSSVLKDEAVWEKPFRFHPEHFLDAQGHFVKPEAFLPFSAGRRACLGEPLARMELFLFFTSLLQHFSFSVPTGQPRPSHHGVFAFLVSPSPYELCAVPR
Protocol: as §1
P450-Glo™ CYP2D6 Screening System, (Promega);
as §2, §3
3.2. Inhibition Against CYP2D6:
as §4, with “and Luciferin-ME EGE (3 μM), K3PO4” for “and Luciferin-ME (100 μM), K3PO4”, “mM), and CYP2D6 (5 nM) were added” for “mM), and CYP1A2 (0.01 μmol/μL) were added”, “reacted at 37° C. for 30” for “reacted at room temperature for 30”
as §5
Blank control group: The experimental method for the blank control group was the same as that for the test group, except that the test compound was not added and that CYP2D6 was replaced with CYP2D6 Membrance (5 nM).
as §6, §7

CYP3A4 = target: T3, CYP3A4 (Homo sapiens, UniProt P08684); experiment: Biochemical assay for CYP enzyme inhibition, P450-Glo CYP3A4 Screening System; assay type: in vitro ADME; conditions: estimated from percentage inhibition; read-out: IC50 (μM) CYP3A4
T3 construct: purchased Promega
T3 sequence (P08684 whole entry): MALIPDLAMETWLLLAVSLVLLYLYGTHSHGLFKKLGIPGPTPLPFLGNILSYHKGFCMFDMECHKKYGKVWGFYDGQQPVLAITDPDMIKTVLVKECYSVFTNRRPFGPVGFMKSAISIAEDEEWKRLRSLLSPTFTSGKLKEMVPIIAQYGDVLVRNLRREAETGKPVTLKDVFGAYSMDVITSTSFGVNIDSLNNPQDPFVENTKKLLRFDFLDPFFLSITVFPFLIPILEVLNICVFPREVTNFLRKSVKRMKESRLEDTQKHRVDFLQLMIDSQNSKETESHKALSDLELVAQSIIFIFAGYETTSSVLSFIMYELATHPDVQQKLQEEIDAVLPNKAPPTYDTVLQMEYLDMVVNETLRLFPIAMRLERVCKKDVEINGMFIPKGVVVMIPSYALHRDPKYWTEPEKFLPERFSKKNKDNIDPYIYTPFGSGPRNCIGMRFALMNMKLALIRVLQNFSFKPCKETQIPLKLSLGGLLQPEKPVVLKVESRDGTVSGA
Protocol: as §1
P450-Glo™ CYP3A4 Screening System, (Promega).
as §2, §3
3.3. Inhibition Against CYP3A4:
as §4, with “Luciferin-IPA ([…]),” for “Luciferin-ME (100 μM),”, “CYP3A4 (2 nM)” for “CYP1A2 (0.01 μmol/μL)”
as §5
Blank control group: The experimental method for the blank control group was the same as that for the test group, except that the test compound was not added and that CYP3A4 was replaced with CYP3A4 Membrance (2 nM).
as §6, §7

SMILES	AUC(0-t) ([1]; IV, 1 mg/kg)	Cmax ([1]; IV, 1 mg/kg)	clearance ([1]; IV, 1 mg/kg)	AUC(0-t) ([1]; PO, 5 mg/kg)	Cmax ([1]; PO, 5 mg/kg)	AUC(0-t) ([2]; iv, 1 mg/kg)	clearance ([2]; iv, 1 mg/kg)	AUC(0-t) ([2]; po, 10 mg/kg)	half-life ([2]; po, 10 mg/kg)	AUC(0-t) ([3]; IV, 0.5 mg/kg)	clearance ([3]; IV, 0.5 mg/kg)	AUC(0-t) ([3]; PO, 2.5 mg/kg)	half-life ([3]; PO, 2.5 mg/kg)	IC50 (CYP1A2)	IC50 (CYP2D6)	IC50 (CYP3A4)
Cc1nc(N2CCC3(CC2)CO[C@@H](C)[C@H]3N)c(CO)nc1Sc1ccnc(N)c1Cl [Control Compound 2]	696 ng·h/mL	215 ng/mL	24.6 mL/min/kg	2760 ng·h/mL	363 ng/mL	576 ng·h/mL	23.2 mL/min/kg	3870 ng·h/mL	5.08 h	614 ng·h/mL	13.2 mL/min/kg	2550 ng·h/mL	12.3 h			
C[C@@H]1OCC2(CCN(c3ncc(Sc4ccnc(N5CC(O)C5)c4Cl)nc3CO)CC2)[C@@H]1N [Control Compound 1]						2200 ng·h/mL	7.21 mL/min/kg	8690 ng·h/mL	4.61 h	1220 ng·h/mL	7.08 mL/min/kg	3910 ng·h/mL	10.5 h	> 10 µM	6.96 µM	> 10 µM
